Test results reported in patent publication US20240209028A1, “CNP COMPOUNDS” (priority 2022, published 2024).
Starred links: 1 amine or outer side, 2 acyl side, 3 side chain; linkers in the order of their positions; H or OH if unused. Positions of bridges follow the written chain, without caps; N, C: chain ends. Residues, ends and D or L forms follow the SMILES beside them. *: point of attachment. C18 diacid = O=C(O)CCCCCCCCCCCCCCCCC(=O)*; γGlu = O=C(O)[C@H](CCC(=O)[*:2])N[*:1]; AEEA = NCCOCCOCC(=O)O

What was measured:
[1] = Thioflavin T (ThT) assay: lagtime and peptide recovery; assay type: physicochemical; settings: assay terminated after 45 hours; for LagTime (h) at pH 4.0: ThT, 37° C., shaking; for LagTime (h) at pH 6.5: ThT assay, pH 6.5, 37° C.
Excerpt: The ThT assay was used to evaluate physical stability of the CNP compounds and their suitability for liquid formulation. Low physical stability of peptides may lead to amyloid fibril formation, which is observed as well-ordered, thread-like macromolecular structures in the sample eventually resulting in gel formation. This has traditionally been tested by visual inspection of the sample. However, that kind of measurement is very subjective and depending on the observer. Therefore, the application of a small molecule indicator probe is much more advantageous. Thioflavin T (ThT) is such a probe and has a distinct fluorescence signature when binding to fibrils [Naiki et al. (1989) Anal. Biochem. 177, 244-249; LeVine (1999) Methods. Enzymol. […], 274-284].
Procedure: Thioflavin T was added to the supernatant samples from Example 5 (pH 4.0 and 6.5) using an aqueous ThT stock solution to a final concentration of about 1 μM in the samples. Sample aliquots of 150 μL were placed in a 96 well microtiter plate (Packard OptiPlate™-96, white polystyrene). Usually, two to three replicas of each sample were applied to the plate. The plate was sealed and placed in a fluorescence plate reader (Fluoroskan Ascent FL) and incubated at 37° C. with orbital shaking (960 rpm; 1 mm amplitude). Fluorescence measurements were performed every 20 minutes using excitation through a 444 nm filter and measurement of emission through a 485 nm filter. Between each measurement, the plate was shaken and heated as described above and the assay was terminated after 45 hours. Fluorescence measurements for each microtiter plate well were plotted against time and the lag-time (time until an increase in ThT fluorescence was observed) was estimated.
To assess loss of dissolved peptide following 45h incubation, peptide recovery was measured as the ratio between total peak area after incubation vs. before incubation using the RP-UPLC method described below.
Measurement of LagTime and Peptide recovery % using RP-UPLC: RP-UPLC was conducted using an Acquity UPLC BEH C18 1.7 μm (2.1×30 mm) Waters column (Eluent A: 0.1% v/v % TFA in water; Eluent B: 0.1% v/v TFA in acetonitrile/water 4:1) with gradient elution (0 min: 95% A; 2 min: 20% A; 2.3 min: 20% A; 2.4 min: 95% A; 9 min: 95% A) in a flow rate of 0.9 mL/min and a column temperature of 30° C. UV-detection at 215 nm was used to assess the total peptide area.
Samples at pH 4.0 were prepared as described in Example 5 and subjected to the ThT assay as described above.
Samples at pH 6.5 were prepared as described in Example 5 and subjected to the ThT assay as described above.

[2] = High-Molecular-Weight-Protein (HMWP) formation by SEC-UPLC; assay type: physicochemical; settings: increase over two weeks at 37° C.
Procedure: In order to assess the propensity of CNP compounds to form covalent dimers or oligomers when formulated the High-Molecular-Weight-Protein content of CNP compound formulations at pH 4.0 and 6.5 were determined.
Procedure: The relative amount of covalent HMWP was assessed using SEC-UPLC. SEC-UPLC was conducted using a Waters UPLC Protein BEH SEC column, 125A, 4.6×150 mm, 1.7 μm, with isocratic elution (0.3 M NaCl, 10 mM NaH2PO4 and 5 mM H3PO4, 50% (v/v) isopropanol, pH 2.4) with a flow rate of 0.3 mL/min, a column temperature at 50° C. with UV-detection at 215 nm. The total area of peaks eluting prior to the monomeric main peak was termed HMWP and given on a percentage scale relative to the total peptide peak area.
(§1) Results: HMWP Formation Following 2-Weeks Quiescent Incubation at 37° C.: Samples at pH 4.0 were prepared as described in Example 5 and the amount of HMWP was determined as described above. Samples were incubated for two weeks at 37° C. and the amount of HMWP was determined again. The increase in HMWP over two weeks incubation at 37° C. are reported in Table 10 (in case the incubation period deviated from two weeks the increase in HMWP was normalized to two weeks assuming a constant formation rate).
as §1, with “Samples” for “Results: HMWP Formation Following 2-Weeks Quiescent Incubation at 37° C.: Samples”, “6.5” for “4.0”, “11” for “10”

| SMILES | LagTime (h) at pH 4.0 [1] | 2-Week HMWP formation at pH 4.0 (%), % relative to total peak area [2] | LagTime (h) at pH 6.5 [1] | 2-Week HMWP formation at pH 6.5 (%), % relative to total peak area [2] |
| --- | --- | --- | --- | --- |
| CC[C@H](C)[C@@H]1NC(=O)[C@H](CCCNC(=N)N)NC(=O)[C@H](CC(=O)O)NC(=O)[C@H](CC(C)C)NC(=O)[C@@H]2CCCN2C(=O)[C@H](CC(C)C)NC(=O)CNC(=O)[C@H](Cc2ccccc2)NC(=O)[C@@H](NC(=O)CNC(=O)[C@H](CO)NC(=O)[C@H](CO)NC(=O)[C@@H](NC(=O)CNC(=O)[C@@H](NC(=O)[C@H](Cc2c[nH]cn2)NC(=O)[C@H](CCC(N)=O)NC(=O)[C@H](C)NC(=O)CNC(=O)[C@H](Cc2c[nH]cn2)NC(=O)[C@H](Cc2ccc(O)cc2)NC(=O)[C@H](CCCCN)NC(=O)[C@H](CCCNC(=N)N)NC(=O)[C@H](C)NC(=O)COCCOCCNC(=O)COCCOCCNC(=O)CC[C@H](NC(=O)CCCCCCCCCCCCCCCCC(=O)O)C(=O)O)[C@@H](C)O)C(C)C)CSSC[C@@H](C(=O)O)NC(=O)CNC(=O)[C@H](CC(C)C)NC(=O)CNC(=O)[C@H](CO)NC(=O)[C@H](CC(C)C)NC(=O)[C@H](CO)NC(=O)CNC1=O [compound 1351] ({C18 diacid-γGlu-AEEA-AEEA}-ARKYHGAQHTGVSSGCFGLPLDRIGSLSGLGC-OH; disulfide 16-32) | 45 h | 1.94% |  |  |
| CC[C@H](C)[C@@H]1NC(=O)[C@H](CCCNC(=N)N)NC(=O)[C@H](CC(=O)O)NC(=O)[C@H](CC(C)C)NC(=O)[C@@H]2CCCN2C(=O)[C@H](CC(C)C)NC(=O)CNC(=O)[C@H](Cc2ccccc2)NC(=O)[C@@H](NC(=O)CNC(=O)[C@H](CO)NC(=O)[C@H](CO)NC(=O)[C@@H](NC(=O)CNC(=O)[C@@H](NC(=O)[C@H](CCCCN)NC(=O)[C@H](CCC(N)=O)NC(=O)[C@H](C)NC(=O)CNC(=O)[C@H](Cc2c[nH]cn2)NC(=O)[C@H](Cc2ccc(O)cc2)NC(=O)COCCOCCNC(=O)COCCOCCNC(=O)COCCOCCNC(=O)CC[C@H](NC(=O)CCCCCCCCCCCCCCCCC(=O)O)C(=O)O)[C@@H](C)O)C(C)C)CSSC[C@@H](C(=O)O)NC(=O)CNC(=O)[C@H](CC(C)C)NC(=O)CNC(=O)[C@H](CO)NC(=O)[C@H](CC(C)C)NC(=O)[C@H](CO)NC(=O)CNC1=O [compound 1352] ({C18 diacid-γGlu-AEEA-AEEA-AEEA}-YHGAQKTGVSSGCFGLPLDRIGSLSGLGC-OH; disulfide 13-29) |  |  | 23 h | 0.82% |
| CC[C@H](C)[C@@H]1NC(=O)[C@H](CCCNC(=N)N)NC(=O)[C@H](CC(=O)O)NC(=O)[C@H](CC(C)C)NC(=O)[C@@H]2CCCN2C(=O)[C@H](CC(C)C)NC(=O)CNC(=O)[C@H](Cc2ccccc2)NC(=O)[C@@H](NC(=O)CNC(=O)[C@H](CO)NC(=O)[C@H](CO)NC(=O)[C@H](CC(C)C)NC(=O)CNC(=O)[C@H](CCCCN)NC(=O)[C@H](CCCCN)NC(=O)[C@H](CCC(N)=O)NC(=O)[C@H](C)NC(=O)CNC(=O)[C@H](CCC(=O)O)NC(=O)[C@H](Cc2ccc(O)cc2)NC(=O)CNC(=O)CNC(=O)CNC(=O)COCCOCCNC(=O)COCCOCCNC(=O)CC[C@H](NC(=O)CCCCCCCCCCCCCCCCC(=O)O)C(=O)O)CSSC[C@@H](C(=O)O)NC(=O)CNC(=O)[C@H](CC(C)C)NC(=O)CNC(=O)[C@H](CO)NC(=O)[C@H](CC(C)C)NC(=O)[C@H](CO)NC(=O)CNC1=O [compound 1378] ({C18 diacid-γGlu-AEEA-AEEA}-GGGYEGAQKKGLSSGCFGLPLDRIGSLSGLGC-OH; disulfide 16-32) |  |  | 2.5 h | 6.67% |
| CC[C@H](C)[C@@H]1NC(=O)[C@H](CCCNC(=N)N)NC(=O)[C@H](CC(=O)O)NC(=O)[C@H](CC(C)C)NC(=O)[C@@H]2CCCN2C(=O)[C@H](CC(C)C)NC(=O)CNC(=O)[C@H](Cc2ccccc2)NC(=O)[C@@H](NC(=O)CNC(=O)[C@H](CCC(N)=O)NC(=O)[C@H](CO)NC(=O)[C@H](CO)NC(=O)CNC(=O)[C@H](Cc2c[nH]cn2)NC(=O)[C@H](Cc2c[nH]cn2)NC(=O)[C@H](CCC(N)=O)NC(=O)[C@H](C)NC(=O)CNC(=O)[C@H](Cc2c[nH]cn2)NC(=O)[C@H](Cc2ccc(O)cc2)NC(=O)[C@H](CCCCN)NC(=O)[C@H](Cc2c[nH]cn2)NC(=O)[C@H](C)NC(=O)[C@H](CCC(N)=O)NC(=O)[C@@H]2CCCN2C(=O)[C@H](Cc2c[nH]cn2)NC(=O)[C@H](CCC(=O)O)NC(=O)[C@H](CCC(N)=O)NC(=O)COCCOCCNC(=O)COCCOCCNC(=O)CC[C@H](NC(=O)CCCCCCCCCCCCCCCCC(=O)O)C(=O)O)CSSC[C@@H](C(=O)O)NC(=O)CNC(=O)[C@H](CC(C)C)NC(=O)CNC(=O)[C@H](CO)NC(=O)[C@H](CC(C)C)NC(=O)[C@H](CO)NC(=O)CNC1=O [compound 1381] ({C18 diacid-γGlu-AEEA-AEEA}-QEHPQAHKYHGAQHHGSSQGCFGLPLDRIGSLSGLGC-OH; disulfide 21-37) | 45 h | 0.84% |  |  |
| CC[C@H](C)[C@@H]1NC(=O)[C@H](CCCNC(=N)N)NC(=O)[C@H](CC(=O)O)NC(=O)[C@H](CC(C)C)NC(=O)[C@@H]2CCCN2C(=O)[C@H](CC(C)C)NC(=O)CNC(=O)[C@H](Cc2ccccc2)NC(=O)[C@@H](NC(=O)CNC(=O)[C@H](CCC(N)=O)NC(=O)[C@H](CO)NC(=O)[C@H](CC(C)C)NC(=O)CNC(=O)[C@H](CCCCN)NC(=O)[C@H](CCCCN)NC(=O)[C@H](CCC(N)=O)NC(=O)[C@H](C)NC(=O)CNC(=O)[C@H](CCCCN)NC(=O)[C@H](Cc2ccc(O)cc2)NC(=O)[C@H](CCCCN)NC(=O)[C@H](Cc2c[nH]cn2)NC(=O)[C@H](C)NC(=O)[C@H](CCC(N)=O)NC(=O)[C@@H]2CCCN2C(=O)[C@H](Cc2c[nH]cn2)NC(=O)[C@H](CCC(=O)O)NC(=O)[C@H](CCC(N)=O)NC(=O)COCCOCCNC(=O)COCCOCCNC(=O)CC[C@H](NC(=O)CC[C@H](NC(=O)CC[C@H](NC(=O)CCCCCCCCCCCCCCCCC(=O)O)C(=O)O)C(=O)O)C(=O)O)CSSC[C@@H](C(=O)O)NC(=O)CNC(=O)[C@H](CC(C)C)NC(=O)CNC(=O)[C@H](CO)NC(=O)[C@H](CC(C)C)NC(=O)[C@H](CO)NC(=O)CNC1=O [compound 1382] ({C18 diacid-γGlu-γGlu-γGlu-AEEA-AEEA}-QEHPQAHKYKGAQKKGLSQGCFGLPLDRIGSLSGLGC-OH; disulfide 21-37) |  |  | 45 h | 0% |
